Assay type in all cases: cell-based, human
In one assay the test system is MDM2. The assay is described as follows: Protein expression, Western blot in MCF-7 cells. The note with it: for expression of MDM2: 1 μM, 6 h (FIG. 4A). The protocol: (§1) In FIG. 4A, MCF-7 cells were exposed to 1 μM concentration of the indicated compounds for 6 hours. Western blots were probed with antibodies specific for the proteins indicated. Numbers below each lane show densitometry readings for each lane as compared to control. […] Western blots were probed with antibodies specific for the proteins indicated.
(§2) To determine the disclosed compounds effect on protein expression in human breast cancer cells, cultured MCF-7 cells were exposed to various concentrations of the test compounds for 6 h (FIG. 4A) or 24 h (FIG. 4B). Cell lysates were fractionated with identical amounts of protein by SDS-PAGE and transferred to Bio-Rad trans-Blot nitrocellulose membranes (Bio-Rad Laboratories, Hercules, Calif.). The nitrocellulose membrane was incubated in blocking buffer (Tris-buffered saline containing 0.1% Tween 20 and 5% nonfat milk) for 1 h at room temperature, then with the appropriate primary antibody overnight at 4° C. or 2 h at room temperature with gentle shaking. Finally, the membrane was washed three times with the washing buffer (Tris-buffered saline containing 0.1% Tween 20) for 15 min, incubated with goat anti mouse/rabbit IgG-horseradish peroxidase-conjugated antibody (Bio-Rad) for 1 h at room temperature, and washed again (in triplicate). The protein of interest was detected by enhanced chemiluminescence reagents from PerkinElmer LAS, Inc (Boston, Mass.).
(In general: In western blotting, separated proteins are transferred to a membrane and probed.)

Another assay has as its system p21. The assay is described as follows: Protein expression, Western blot in MCF-7 cells. The note with it: 1 μM, 6 h (FIG. 4A). As for the experimental part:
as §1, §2

A further assay relates to p53. The assay is described as follows: Protein expression, Western blot in MCF-7 cells. The settings on record: 1 μM, 6 h (FIG. 4A). As for the experimental part: as §1, §2
Another assay relates to MCF-7. The assay is described as follows: XTT cytotoxicity assay. The note with it: XTT; average ± standard deviation of 2-4 independent assays; read-out: Inhibition of Cancer Cell Proliferation (IC50) MCF-7. As for the experimental part: (§3) In initial experiments, compounds 4a-g and 7c-g were evaluated for their cytotoxicity against human breast cancer cell lines MCF-7 and MDA-MB-468 and human colon cancer cell line HCT-116. The makaluvamine compounds provided in Table 2 were also evaluated for their cytotoxicity against human breast cancer cell lines MCF-7. Compound nos. 8 and 27-33 were not evaluated in this experiment. Cells were obtained from ATCC (Manassas, Va.). For each derivative the IC50 value was determined using data generated from 2-4 independent tetrazolium-based (XTT) cytotoxicity assays (R & D Systems Inc., Minneapolis, Minn.) according to the manufacturer's instructions. […] MCF-7, MDA-MD-468 and HCT-116 cells were grown at 37 degrees C. in a humidified atmosphere with complete growth media supplemented with fetal bovine serum. Growth media was changed 2-3 times per week as required.

The subject of a further assay is HCT-116. The assay is described as follows: XTT cytotoxicity assay. The note with it: average ± standard deviation of 2-4 independent assays, read-out: Inhibition of Cancer Cell Proliferation (IC50) HCT-116. The protocol:
as §3

A further assay relates to MDA-MB-468. The assay is described as follows: XTT cytotoxicity assay. The note with it: average ± standard deviation of 2-4 independent assays, read-out: Inhibition of Cancer Cell Proliferation (IC50) MDA-MB-468. The protocol: as §3
On the technique in general: Tetrazolium dyes change colour on reduction, which living cells bring about.

For another assay, the system named is U87MG. The assay is described as follows: MTT growth inhibition assay. The settings on record: cancer cell, 72 hr, read-out: Growth inhibitory activity (IC50).
Another assay concerns OVCAR5. The assay is described as follows: NCI60 cell line screen (SRB). The note with it: OVCAR5, Ovarian Cancer, 48 h. The protocol:
(§4) This panel implements the NCI60 cell line screen, including leukemia, non-small cell lung cancer, colon cancer, central nervous system cancer, melanoma, ovarian cancer, renal cancer, prostate cancer and breast cancer. The cell lines tested are specified in Table 3.
(§5) Generally, the human tumor cell lines of the cancer screening panel are grown in RPMI 1640 medium containing 5% fetal bovine serum and 2 mM L-glutamine. For a typical screening experiment, cells are inoculated into 96 well microtiter plates in 100 μL at plating densities ranging from 5,000 to 40,000 cells/well depending on the doubling time of individual cell lines. After cell inoculation, the microtiter plates are incubated at 37° C., 5% CO2, 95% air and 100% relative humidity for 24 h prior to addition of experimental drugs. After 24 h, two plates of each cell line are fixed in situ with TCA, to represent a measurement of the cell population for each cell line at the time of drug addition (Tz). Experimental drugs are solubilized in dimethyl sulfoxide at 400-fold the desired final maximum test concentration and stored frozen prior to use. At the time of drug addition, an aliquot of frozen concentrate is thawed and diluted to twice the desired final maximum test concentration with complete medium containing 50 μg/ml gentamicin. Additional four, 10-fold or ½ log serial dilutions are made to provide a total of five drug concentrations plus control. Aliquots of 100 μl of these different drug dilutions are added to the appropriate microtiter wells already containing 100 μl of medium, resulting in the required final drug concentrations.
(§6) Following drug addition, the plates are incubated for an additional 48 h at 37° C., 5% CO2, 95% air, and 100% relative humidity. For adherent cells, the assay is terminated by the addition of cold TCA. Cells are fixed in situ by the gentle addition of 50 μl of cold 50% (w/v) TCA (final concentration, 10% TCA) and incubated for 60 minutes at 4° C. The supernatant is discarded, and the plates are washed five times with tap water and air dried. Sulforhodamine B (SRB) solution (100 μl) at 0.4% (w/v) in 1% acetic acid is added to each well, and plates are incubated for 10 minutes at room temperature. After staining, unbound dye is removed by washing five times with 1% acetic acid and the plates are air dried. Bound stain is subsequently solubilized with 10 mM trizma base, and the absorbance is read on an automated plate reader at a wavelength of 515 nm. For suspension cells, the methodology is the same except that the assay is terminated by fixing settled cells at the bottom of the wells by gently adding 50 μl of 80% TCA (final concentration, 16% TCA). Using the seven absorbance measurements (time zero, Tz, control growth, (control), and test growth in the presence of drug at the five concentration levels (Ti)), the percentage growth is calculated at each of the drug concentrations levels. Percentage growth inhibition is calculated as:
(§7) [(Ti−Tz)/(C−Tz)]×100 for concentrations for which Ti>/=Tz
(§8) [(Ti−Tz)/Tz]×100 for concentrations for which Ti<Tz.

Another assay deals with K-562. The assay is described as follows: NCI60 cell line screen (SRB). The note with it: K-562, Leukemia, 48 h. The protocol:
as §4, §5, §6, §7, §8

A further assay relates to OVCAR3. The assay is described as follows: NCI60 cell line screen (SRB). The settings on record: OVCAR3, Ovarian Cancer, 48 h. The protocol:
as §4, §5, §6, §7, §8

For another assay, the system named is SF-539. The assay is described as follows: NCI60 cell line screen (SRB). The note with it: SF-539, CNS Cancer, 48 h. The protocol: as §4, §5, §6, §7, §8
The subject of a further assay is SNB-75. The assay is described as follows: NCI60 cell line screen (SRB). The note with it: SNB-75, CNS Cancer, 48 h. The protocol: as §4, §5, §6, §7, §8
In another assay the test system is IGROV1. The assay is described as follows: NCI60 cell line screen (SRB). The note with it: IGROV1, Ovarian Cancer, 48 h. As for the experimental part:
as §4, §5, §6, §7, §8

Broadly, the GI50 is the concentration that inhibits growth by half.

SMILES strings stand for the structures. Where two headings read alike, the source gives them in different places.

`O=C1C(NCCc2ccccc2)=CC2=NCCc3c[nH]c1c32` [Compound 4d]: in the assay on MDM2, the “expression of MDM2” value is “increased the expression”. For the same compound, the “expression of p21” value in the assay with p21 is “increased the expression”. For the same compound, in the assay on p53, the “expression of p53” value is “increased the expression”. Besides, the IC50 came to 1700 ± 500 nM with MCF-7, 3900 ± 1200 nM in the assay on HCT-116, 300 nM with MDA-MB-468 and 4280 nM in the assay on U87MG.

Regarding `CNC1=CC2=NCCc3c[nH]c(c32)C1=O` [Compound 4a], the IC50 in the assay with MCF-7 is 1300 ± 100 nM; in the assay on HCT-116 it was 2500 ± 1300 nM; in the assay with MDA-MB-468, 400 ± 50 nM. In addition, the GI50 was determined as 17300 nM with OVCAR5; 2190 nM with K-562; 6300 nM in the assay with OVCAR3; 2390 nM in the assay on SF-539; 1380 nM with SNB-75; 2900 nM with IGROV1.

In the case of `O=C(O)C(F)(F)F.O=C1C(NCc2ccc(F)cc2)=CC2=NCCc3c[nH]c1c32` [Compound 28], in the assay with MDM2, the “expression of MDM2” value was “inhibited the expression”. Besides, the “expression level of MDM2” value with MDM2 (24 h (FIG. 4B)) is “decreased”. Further, the “expression of p21” value with p21 is listed as “decreased the expression”. The “expression of p53” value in the assay with p53 is “decreased the expression”. In addition, the IC50 in the assay on U87MG (Homo sapiens, U-87 MG) amounted to 1710 nM. Further, the GI50 came to 2370 nM in the assay with OVCAR5 (Homo sapiens, OVCAR-5); 1070 nM in the assay with K-562 (Homo sapiens, K562); 2230 nM with OVCAR3 (Homo sapiens, OVCAR-3); 1740 nM in the assay on SF-539 (Homo sapiens); 5200 nM in the assay on SNB-75 (Homo sapiens); 1430 nM in the assay on IGROV1 (Homo sapiens, IGROV-1).

On to `O=C1C(NCc2ccccc2)=CC2=NCCc3c[nH]c1c32` [Compound 4c], for which, in the assay with MDM2, the “expression of MDM2” value was “inhibited the expression”. In the assay with p21, the “expression of p21” value was “decreased the expression”. In addition, the “expression of p53” value in the assay on p53 is “increased the expression”. In addition, the IC50 is 1000 nM in the assay on MCF-7, 1300 ± 200 nM in the assay with HCT-116, 300 nM with MDA-MB-468 and 2880 nM in the assay with U87MG. Also, the GI50 is 2670 nM in the assay on OVCAR5; 2360 nM in the assay on K-562; 2580 nM in the assay on OVCAR3; 1910 nM with SF-539; 1650 nM in the assay on SNB-75; 793 nM with IGROV1.

As for `O=C(O)C(F)(F)F.O=C1C(NCCc2ccc3c(c2)OCO3)=CC2=NCCc3c[nH]c1c32` [Compound 6], the “expression of p53” value with p53 was “increased the expression”. Moreover, in the assay with U87MG (Homo sapiens, U-87 MG), the IC50 came out at 5640 nM. Moreover, the GI50 was 2720 nM in the assay on OVCAR5 (Homo sapiens, OVCAR-5); 3430 nM with K-562 (Homo sapiens, K562); 2020 nM in the assay on OVCAR3 (Homo sapiens, OVCAR-3); 2210 nM in the assay with SF-539 (Homo sapiens); 3490 nM with SNB-75 (Homo sapiens); 2520 nM in the assay on IGROV1 (Homo sapiens, IGROV-1).

Consider `COc1ccc(CCNC2=CC3=NCCc4c[nH]c(c43)C2=O)cc1OC.O=C(O)C(F)(F)F` [Compound 20], for which, in the assay with MDM2, the “expression of MDM2” value was “inhibited the expression”. In addition, in the assay on p21, the “expression of p21” value is recorded as “decreased the expression”. The “expression of p53” value in the assay with p53 was “decreased the expression”. Moreover, the IC50 in the assay with U87MG (Homo sapiens, U-87 MG) worked out at 3040 nM. Moreover, the GI50 with OVCAR5 (Homo sapiens, OVCAR-5) was 5140 nM; in the assay on K-562 (Homo sapiens, K562), 16900 nM; in the assay on OVCAR3 (Homo sapiens, OVCAR-3), 1610 nM; in the assay on SF-539 (Homo sapiens), 3280 nM; with SNB-75 (Homo sapiens), 5220 nM; in the assay on IGROV1 (Homo sapiens, IGROV-1), 4240 nM.

(Values after patent US20100144779A1, “Marine Alkalod Makaluvamines and Derivatives Thereof” (THE UAB RESEARCH FOUNDATION, priority 2007, published 2010).)
